According to patent US20200038413A1, “METHODS OF TREATING PARKINSON'S DISEASE USING AMINOSTEROL COMPOSITIONS” (Enterin, Inc., priority 2018, published 2020):
“And” between values parts separate entries of the source, which are not always exact repeats. Equal entries are not always repeated.

Key:
[1] = Phase 2 trial: pharmacokinetics of orally administered squalamine (ENT-01); assay type: in vivo; settings: human, based on PK of intravenously administered squalamine in prior clinical studies
Method: Pharmakokinetics: PK data were collected on the 10 patients enrolled in Stage 1 and 10 patients enrolled in Stage 2 to determine the extent of systemic absorption. In Stage 1, PK data were obtained at each visit, pre-medication, at 1, 2, 4, 8 and 24 hours (Table 10). In Stage 2, PK was measured on days 1 and 6 of the randomization period pre-medication, at 1, 2, 4 and 8 hours (Table 11).
The mean Cmax, Tmax and T1/2 and AUC of the squalamine ion following squalamine (ENT-01) oral dosing for Stage 1 patients. The PK analyses are only approximate, as the lower limit of the validated concentration range was 10 ng/ml; most of the measured concentrations fell below that value. The mean Cmax, Tmax and T1/2 and AUC of the squalamine ion following squalamine (ENT-01) oral dosing for Stage 2 patients. The PK analyses are only approximate, as the lower limit of the validated concentration range was 0.5 ng/ml.

[2] = system: patients with PD and constipation; test: Phase 2 trial Stage 2: CNS symptoms (UPDRS, MMSE, PDHQ, BDI-II, sleep diary); assay type: in vivo, human
From the text: Exploratory end-points, in addition to constipation, included for example, (i) depression assessed using the Beck Depression Inventory (BDI-II) (Steer et al. 2000) and Unified Parkinson's Disease Rating Scale (UPDRS); (ii) cognition assessed using the Mini Mental State Examination (MMSE) (Palsteia et al. 2018), Unified Parkinson's Disease Rating Scale (UPDRS), and Trail Making Test (TMT); (iii) sleep and REM-behavior disorder (RBD) using a daily sleep diary, I-Button Temperature Assessment, a REM sleep behavior disorder (RBD) questionnaire (RBDQ) (Stiasny-Kolster et al. 2007), and the UPDRS; (iv) hallucinations assessed using the PD hallucinations questionnaire (PDHQ) (Papapetropoulos et al. 2008), the UPDRS, and direct questioning; (v) fatigue using the Parkinson's Disease Fatigue Scale (PFS-16) and the UPDRS; (vi) motor functions using the UPDRS; and (vii) non-motor functions using the UPDRS.
(§1) Assessments were made at baseline and at the end of the fixed dose and washout periods. Circadian system status was evaluated by continuously monitoring wrist skin temperature (Thermochron iButton DS1921H; Maxim, Dallas) following published procedures (Sarabia et al. 2008).
CNS Symptoms in Stage 2: An exploratory analysis was done with respect to the sleep data, the body temperature data, mood, fatigue, hallucinations, cognition and other motor and non-motor symptoms of PD. Continuous measurements within a subject were compared with a paired t-test and continuous measurements between subject groups were compared with a two-group t-test. Categorical data were compared with a chi-squared test or a Fisher's exact test if the expected cell counts are too small for a chi-squared test.

[3] = system: patients with PD and constipation; test: Phase 2 trial: circadian rhythm of wrist skin temperature; assay type: in vivo, human; settings: fixed dose vs baseline, 12 patients
Method: as §1
Circadian rhythm of skin temperature was evaluable in 12 patients (i.e., those who had recordings that extended from baseline through washout). Circadian system functionality was evaluated by continuously monitoring wrist skin temperature using a temperature sensor (Thermochron iButton DS1921H; Maxim, Dallas, TX) (Sarabia et al. 2008). A nonparametric analysis was performed for each participant to characterize DST as previously described (Sarabia et al. 2008; Ortiz-Tudela et al. 2010).
Briefly, this analysis includes the following parameters: (i) the inter-daily stability (the constancy of 24-hour rhythmic pattern over days, IS); (ii) intra-daily variability (rhythm fragmentation, IV); (iii) average of 10-minute intervals for the 10 hours with the minimum temperature (L10); (iv) average of 10-minute intervals for the 5 hours with the maximum temperature (M5) and the relative amplitude (RA), which was determined by the difference between M5 and L10, divided by the sum of both. Finally, the Circadian Function Index (CFI) was calculated by integrating IS, IV, and RA. Consequently, CFI is a global measure that oscillates between 0 for the absence of circadian rhythmicity and 1 for a robust circadian rhythm (Ortiz-Tudela et al. 2010).

[4] = system: colon segments (propagating contractile clusters); test: Ex vivo colon motility, A53T human α-synuclein overexpressing mice and WT littermates; design: species or system mouse
[5] = Preclinical oral studies in dogs; assay type: in vivo

## CC(C)[C@@H](CC[C@@H](C)[C@H]1CC[C@H]2[C@@H]3[C@H](O)C[C@H]4C[C@@H](NCCCNCCCCN)CC[C@]4(C)[C@H]3CC[C@]12C)OS(=O)(=O)O (single isomer, unassigned) [squalamine (ENT-01), squalamine]
[1]
  oral bio-availability (estimated): less than 0.3%
[2]; 250 mg vs baseline
  increase in total sleep time: 18%
[2]; during treatment, patients with hallucinations (5) or delusions (1) at baseline
  hallucinations and delusions improved or disappeared: 5 of 6
[2]; maximal dose vs baseline
  improvement in frequency of arm or leg thrashing: 100%
[2]; wash-out vs baseline
  improvement in UPDRS Part 1: ~20% and 18%
[3]; p=0.001
  relative amplitude (RA): increasing
[3]; p=0.016
  circadian function index (CFI): increasing
[3]; p=0.026
  rhythm stability (IS): increasing
[3]; p=0.031
  rhythm fragmentation (IV): reducing
[4]; A53T mice, baseline state, intraluminal 30 μM, without drug 1.2±0.2
  PCC velocity: 2.3±0.4 mm/s
[4]; A53T mice, colonic expansion (mechanical threshold), 30 μM, without drug 1.6±0.3
  PCC velocity: 2.1±0.3 mm/s
[4]; WT mice, baseline state, intraluminal 30 μM, without drug 1.7±0.3
  PCC velocity: 2.8±0.4 mm/s
[4]; WT mice, colonic expansion (mechanical threshold), 30 μM, without drug 3.0±0.7
  PCC velocity: 2.4±0.3 mm/s
[5]
  tolerability: well tolerated
